One experiment relates to NCI-H929. Briefly: Proliferation inhibition, NCI-H929 cell line. The note with it: Homo sapiens; NCI-H929 cells, 96 hours culture, cell viability detection; read-out: Antiproliferative IC50 NCI-H929. It is filed as cell-based, human. From the text: (§1) The cell lines used in the test are NCI-H929 and HepG2 cell lines whose Wnt pathway is continuously activated and whose proliferation is Wnt pathway-dependent; the inhibitory effect of the compound of the present invention on Wnt-dependent proliferation is judged.
(§2) Treat the NCI-H929 and HepG2 cell lines cultured in their respective mediums in the logarithmic growth phase, collect the cells and prepare a uniform cell suspension of known concentration, and then add the cell suspension to the 96-well cell culture plate solution so that each well contains 4000 cells. Put it into a […] incubator and incubate at 37° C. for 20-24 h. On the second day, the fully dissolved, 3-fold serially diluted compound was added to each cell culture well, so that the final maximum concentration in the cell culture well was 20 uM, and the culture was continued for 96 hours. In this test, Promega's cell viability detection test is used for detection. The more the cells proliferate, the stronger the final signal intensity will be. The detection instrument is SpectraMax, full wavelength mode. The wells only added with DMSO were used as positive control wells, and the wells that were not inoculated with cells were used as negative control wells. […] The IC50 value of cell proliferation inhibition was used to evaluate the inhibitory effect of the compound on the Wnt pathway and the toxic effect on normal cells (Table 3).

The next experiment has as its system RKO. Put plainly: Proliferation inhibition, non-Wnt mutant control cell line RKO. The class given is cell-based. Particulars: Homo sapiens, Wnt-independent control cell line, 96 hours, read-out: Antiproliferative IC50 RKO. The text has this:
(§3) The cell lines used in the experiment are Colo205 and DU4475 cell lines whose Wnt pathway is continuously activated and whose proliferation is Wnt pathway-dependent; while the BELA and RKO cell lines, whose Wnt pathway is not activated under normal circumstances and the proliferation is independent of Wnt pathway, as control cell lines. It is Judged that the inhibitory effect of the compound of the present invention on Wnt-dependent proliferation is not caused by other non-specific toxicity.
(§4) Treat the Colo205, Du4475, HELA and RKO cell lines cultured in their respective mediums in the logarithmic growth phase, collect the cells and prepare a uniform cell suspension of known concentration, and then add it to the 96-well cell culture plate Cell suspension, so that each well contains 1000 cells. Put it into a 5% CO2 incubator and incubate at 37° C. for 20-24 h. On the second day, the fully dissolved, 3-fold serially diluted compound was added to each cell culture well, so that the final maximum concentration in the cell culture well was 20 uM, and the culture was continued for 96 hours. In this test, Promega's cell viability detection test is used for detection. The more the cells proliferate, the stronger the final signal intensity will be. The detection instrument is SpectraMax, full wavelength mode. The wells only added with DMSO were used as positive control wells, and the wells that were not inoculated with cells were used as negative control wells. […] The IC50 value of cell proliferation inhibition was used to evaluate the inhibitory effect of the compound on the Wnt pathway and the toxic effect on normal cells (Table 2).

For a further experiment, the system named is Colo205. Briefly: Proliferation inhibition, Wnt mutant cell line Colo205. The class given is cell-based. Particulars: Homo sapiens, COLO 205; Colo205, Wnt pathway-dependent, 96 hours; read-out: Antiproliferative IC50 Colo205.
Source text: as §3, §4

The subject of another experiment is HepG2. Briefly: Proliferation inhibition, HepG2 cell line. The note with it: Homo sapiens; HepG2 cells, 96 hours culture, cell viability detection; read-out: Antiproliferative IC50 HepG2. It is filed as cell-based.
Source text: as §1, §2

In experiment [1] the test system is Colo205-LUC-TCF/LEF M1 reporter cell line (Wnt pathway). Briefly: Colo205-LUC-TCF/LEF M1 reporter gene (luciferase) inhibition. Particulars: 4 hours incubation, luciferase readout. It is filed as cell-based. The text has this:
Colo205 cell line (Cell Bank of Chinese Academy of Sciences, Cat #TCHu102) was purchased from the Cell Bank of Chinese Academy of Sciences. After expansion and subculture, in the exponential growth phase of the cells, transfection with lipo3000 liposome transfection with TCF/LEF transcription factors Driven luciferase reporter plasmid (Promega). […] The plasmid carries a resistance gene for resistance screening. Transfection was carried out in 10 cm culture dishes using conventional complete medium without resistance. After 2 days, the medium with resistance was replaced, and the culture was continued. After that, the resistant medium was replaced every 2 days, and the suspended cells were discarded. The original medium was centrifuged to remove cells and debris and retained as an adaptive medium. When the cells covered the culture dish, the cells were digested, counted, and passaged in a 96-well plate, so that the average number of cells contained in each well was 1.5/well, and the adaptive medium was used for passage. The rest of the cells were frozen. After subculture, culture for 4 hours to allow the cells to adhere to the wall, and then observe the number of cells in each well under a microscope. Wells with only 1 cell per well were labeled as monoclonal wells. Afterwards, normal culture was performed, and the culture medium was replaced every 2 days, and observed. There are holes where the monoclonal cells continue to grow in the early stage, and they are labeled twice, and can be replaced with normal resistant medium. When a monoclonal well was overgrown with a 96-well plate, it is digested and passaged to a 24-well culture plate. After the 24-well plate is overgrown, it is passaged to a 96-well plate and a 6-well plate. The cells in a 96-well plate are at least 6 wells, of which 3 wells were added with known Wnt inhibitors, and the other 3 wells were not treated. After 24 hours, the cells in the 96-well plate were added with a fluorescence detection reagent to detect the fluorescence intensity. Cell lines with fluorescent expression when not treated and decreased fluorescent light after inhibition were selected and further cultured. The Colo205-LUC-TCF/LEF-M1 cell line is one of the cell lines screened above. Its growth curve, cell shape, and cell growth state are similar to those of the original Colo205 cells, and the ratio of the fluorescent signals of the inhibitor-treated and untreated cells is the largest among all cell lines, and the ratio can reach 4-5 times when inhibited at 4 hours, which was completely suitable for the screening of Wnt inhibitors in the later stage.
The Colo205-LUC-TCF/LEF M1 cell line is a reporter tool cell stably transfected with the pGL4.49-LUC2-TCF/LEF vector. The β-catenin Wnt pathway is continuously activated. After adding the inhibitor, the Wnt pathway is inhibited. The expression of firefly luciferase regulated by the[…] cis-element decreased, and after adding the detection substrate, the detected light signal decreased accordingly, so as to detect the inhibitory effect of the compound.
To a 96-well cell culture plate, add 100 uL of the compound with a maximum concentration of 20 uM to each well, and make a 3-fold serial dilution of the compound concentration. Then 10,000 colo205 cells stably transfected with the reporter gene and 100 uL medium were inoculated into each well, and corresponding positive and negative control wells were made at the same time. Put the cells in a 5% CO2 incubator and incubate at 37° C. for 4 hours. After 4 hours, remove the culture medium, add 100 uL of reagent (Promega) containing the corresponding firefly luciferase substrate to each well, and measure the activity of luciferase reporter gene. Luminescence intensity was read with SpectraMax in full wavelength mode. […]

A further experiment relates to DU4475. Briefly: Proliferation inhibition, Wnt mutant cell line DU4475. It is filed as cell-based. Particulars: Homo sapiens, DU-4475; DU4475, Wnt pathway-dependent, 96 hours; read-out: Antiproliferative IC50 DU4475.
Source text: as §3, §4

Results on 18 molecules are retold here after patent US12622917B2, “High-activity Wnt pathway inhibitor compound” (ADLAI NORTYE BIOPHARMA CO., LTD., priority 2020, dated 2026).

Some results are limits rather than exact numbers.

What is called IC50 is the concentration needed to halve the response being measured. Take `CN1c2nc(NCc3ccc(Oc4cc(C(F)(F)F)nn4C4CC4)nc3)nc3c2N(CCC3)C(=O)[C@]1(C)CO` [203 (W372)]: the IC50 in the experiment on NCI-H929 is 95 nM; in the experiment on RKO, > 10000 nM; in the experiment with Colo205 it was 9.3 nM; in the experiment on HepG2, 8.2 nM; in experiment [1] it was 21 nM.

Consider `CN1c2nc(NCc3ccc(Oc4cc(C(F)(F)F)nn4C4CC4)nc3)nc3c2N(CCC3)C(=O)[C@@H]1CO` [205 (W379)], for which the IC50 was 67 nM in the experiment on NCI-H929; > 10000 nM in the experiment with RKO; 14.8 nM in the experiment on Colo205; 5.6 nM in the experiment with HepG2; 37 nM in experiment [1].

For `Cc1cc(CNc2nc3c4c(n2)N(C)[C@@H](C)C(=O)N4CCC3)cnc1Oc1ccc(C(F)(F)F)nc1` [103 (W195)], the IC50 was 11 nM in the experiment with DU4475; > 10000 nM in the experiment with RKO; 19 nM in the experiment on Colo205; 68 nM in the experiment on HepG2; 36 nM in experiment [1].

In the case of `[2H]C([2H])([2H])OC[C@@]1(C)C(=O)N2CCCc3nc(NCc4ccc(Oc5cnc(C(F)(F)F)nc5)nc4)nc(c32)N1C([2H])([2H])[2H]` [181 (W396)], the IC50 in the experiment on NCI-H929 is 25 nM; in the experiment on RKO, > 10000 nM; in the experiment with Colo205, 11.9 nM; in the experiment on HepG2 it was 81 nM; in experiment [1], 18 nM.

In the case of `CN1c2nc(NCc3ccc(Oc4cc(C(F)(F)F)nn4C4CCOC4)nc3)nc3c2N(CCC3)C(=O)[C@]1(C)CO` (stereo partly drawn) [234 (W420)], the IC50 was > 10000 nM in the experiment with RKO, 51 nM in the experiment with Colo205 and 66.2 nM in the experiment on HepG2.

As to `CCn1nc(C(F)(F)F)cc1Oc1ccc(CNc2nc3c4c(n2)N(C)[C@@H](C)C(=O)N4CCC3)cn1` [152 (W336)], the IC50 is 36 nM in the experiment on NCI-H929; > 10000 nM with RKO; 2.7 nM in the experiment on Colo205; 4.4 nM with HepG2; 4 nM in experiment [1].

With `COc1nc(C(F)(F)F)ccc1Oc1ccc(CNc2nc3c4c(n2)N(C)[C@@H](C)C(=O)N4CCC3)cn1` [231 (W417)], the IC50 is > 10000 nM in the experiment on RKO, 1.6 nM with Colo205, < 0.5 nM in the experiment on HepG2 and < 0.5 nM in experiment [1].

With `CCn1nc(C(F)(F)F)cc1Oc1ccc(CNc2nc3c4c(n2)N(C)[C@@H](COC)C(=O)N4CCC3)cn1` [202 (W361)], the IC50 in the experiment with NCI-H929 is 50 nM; in the experiment with RKO it was > 10000 nM; with Colo205, 5 nM; with HepG2 it was 10 nM; in experiment [1], 4 nM.

With `[2H]C([2H])([2H])N1c2nc(NCc3ccc(Oc4ccc(C(F)(F)F)nc4)nc3)nc3c2N(CCC3)C(=O)C1CC(F)(F)F` (stereo not drawn) [195 (W323)], the IC50 was 19 nM in the experiment on NCI-H929; > 10000 nM in the experiment on RKO; 2.1 nM with Colo205; 4 nM with HepG2; 22 nM in experiment [1].

For `CCn1nc(C(F)(F)F)cc1Oc1ccc(CNc2nc3c4c(n2)N(C)[C@@](C)(CO)C(=O)N4CCC3)cn1` [204 (W374)], the 50% inhibitory concentration (IC50) with NCI-H929 was 60 nM; with RKO it was > 10000 nM; with Colo205, 9.6 nM; in the experiment with HepG2 it was 12 nM; in experiment [1] it was 25 nM.

For `CN1c2nc(NCc3ccc(Oc4ccc(C(F)(F)F)nc4)nc3)nc3c2N(CCC3)C(=O)C1CC(F)(F)F` (stereo not drawn) [189 (W306)], the 50% inhibitory concentration (IC50) in the experiment with RKO was > 10000 nM; with Colo205 it was 8.5 nM; in the experiment with HepG2, 3.5 nM; in experiment [1], 17 nM.

With `COCC[C@H]1C(=O)N2CCCc3nc(NCc4ccc(Oc5ccc(C(F)(F)F)nc5)nc4)nc(c32)N1C` [214 (W392)], the IC50 in the experiment with NCI-H929 was 82 nM; in the experiment with RKO, > 10000 nM; in the experiment on Colo205 it was 34 nM; in the experiment with HepG2 it was 9.6 nM.

For the molecule `COC[C@@]1(C)C(=O)N2CCCc3nc(NCc4ccc(Oc5ccc(C(F)(F)F)nc5)nc4)nc(c32)N1C` [179 (W375)], the IC50 in the experiment with NCI-H929 is 45 nM; in the experiment with RKO it was > 10000 nM; in the experiment on HepG2 it was 11 nM; in experiment [1], 23 nM.

On to `C[C@H]1C(=O)N2CCCc3nc(NCc4cnn(Cc5cc(C(F)(F)F)nn5C5CC5)c4)nc(c32)N1C` [230 (W415)], for which the IC50 in the experiment with RKO is > 10000 nM; in the experiment on Colo205, 42 nM; with HepG2, 50.8 nM.

`COc1nc(C(F)(F)F)ccc1Oc1ccc(CNc2nc3c4c(n2)N(C)[C@@](C)(CO)C(=O)N4CCC3)cn1` [232 (W418)]: the IC50 with RKO was > 10000 nM; with Colo205 it was 4 nM; with HepG2, < 0.5 nM; in experiment [1] it was 5.5 nM.

Take `[2H]C([2H])([2H])OC[C@@]1(C)C(=O)N2CCCc3nc(NCc4ccc(Oc5ccc(C(F)(F)F)nc5)nc4)nc(c32)N1C([2H])([2H])[2H]` [182 (W395)]: the IC50 with RKO is > 10000 nM; in the experiment on Colo205 it was 10.9 nM; with HepG2, 24 nM; in experiment [1], 7 nM.

For the molecule `CN1c2nc(NCc3ccc(Oc4cnc(C(F)(F)F)nc4)nc3)nc3c2N(CCC3)C(=O)C1CC(F)(F)F` (stereo not drawn) [198 (W307)], the concentration for half-maximal inhibition (IC50) in the experiment with RKO was > 10000 nM; in the experiment with Colo205 it was 8.8 nM; in the experiment on HepG2, 2.3 nM; in experiment [1] it was 17 nM.

As to `C[C@H]1C(=O)N2CCCc3nc(NCc4cnc(Oc5ccc(C(F)(F)F)nc5)c(C#N)c4)nc(c32)N1C` [238 (W426)], the IC50 is > 10000 nM with RKO, 24.6 nM in the experiment with Colo205, 25.8 nM in the experiment with HepG2 and 27.3 nM in experiment [1].
